In patent publication US4656178A (priority 1985, dated 1987):
Where a name gives a salt, the structure may show the parent alone. Read-outs that look alike come from different tables or passages of the source.

Tests used:
[1] = resorptive effect and toxicity (general state); type: in vivo, mice, rats, rabbits and dogs
Description: (§1) The resorptive effect and toxicity of the preparation according to the present invention were studied on mice, rats, rabbits and dogs.

[2] = duration of antiarrhythmic effect compared with quinidine and novocainamide; settings: in vivo
Description: The duration of the antiarrhythmic action of the preparation was studied on rats intravenously administered with aconitine 1, 2, 4, 6, 24 and 48 hours after the preparation administration per os.

[3] = test system: cardiac rhythm disturbances; experiment: clinical study in patients with cardiac rhythm disturbances; type: in vivo, human
Description: The clinical study of the preparation according to the present invention was carried out on 200 patients suffering from various diseases accompanied by different cardiac rhythm disturbances (ischemic heart disease, diverse kinds of cardiomyopathy). The preparation was administered intravenously using 1-2 ampoules (0.5% solution of the preparation, 2 ml) and per os in tablets of 50 mg each (2-3 tablets a day during the first 2 days and 1-2 tablets a day during all following days). ECG characteristics, arterial pressure, heart beat rate and various parameters of hemodynamics were recorded.

[4] = antiinflammatory effect; type: in vivo; settings: doses of 1-5 mg/kg
[5] = sugar, protein and enzymes in rats' blood; type: in vivo; settings: 1 mg/kg, single and lasting administration
[6] = 6-month histological toxicity, rats; type: in vivo; settings: per os, 1 mg/kg, 6 months
[7] = effect on arterial pressure and breathing in narcotized cats and dogs; type: in vivo; settings: intravenous, 0.05, 0.1, 0.5, 1 mg/kg
Description: With the view to evaluate the effect of the preparation according to the present invention on arterial pressure and breathing, experiments have been carried out on narcotized cats and dogs.

[8] = test system: arrhythmia induced by adrenalin; experiment: arrhythmia induced by adrenalin in dogs with ligated coronary artery; type: in vivo; settings: 0.1-0.2 mg/kg
[9] = lethal dose in dogs; type: in vivo; settings: intravenous
Description: as §1
(§2) In doses of 5-6 mg/kg intravenously the preparation according to the present invention causes death of dogs and in doses of 3-4 mg/kg it is lethal for rabbits.

[10] = allergenic effect; type: in vivo; settings: 12 guinea pigs and 6 rabbits
[11] = test system: arrhythmia caused by electrical irritation; experiment: arrhythmia caused by electrical irritation of the right auricle and apex of the left ventricle; type: in vivo, dogs and cats
[12] = test system: coronary blood circulation; experiment: volume rate of the coronary blood flow in cats; type: in vivo
Description: The effect of the pharmaceutical composition according to the present invention on the coronary blood circulation was studied in acute experiments on cats by the method of recording of the volume rate of the coronary blood flow. […] The introduction of 1 mg/kg of the preparation results in an increased volume rate of the coronary blood flow by 30-80% during a long time.

[13] = local anesthetic effect in intact rabbits; type: in vivo
Description: The local anesthetic effect of the preparation was studied on 14 intact rabbits. […] The results of the experiments on determination of the ability of the preparation to cause infiltration anesthesia have shown that 10-15 minutes after intracutaneous administration, to rabbits, of 0.01-0.05% and 0.1% solutions of the preparation anesthesia occurs which is characterized by an increased threshold of a pain irritation; the duration of the effect is 20 to 48 hours. Under the same conditions of the experiment, the local anesthetic effect of a 0.5% solution of novocaine lasts for 90 minutes on the average.

[14] = lethal dose in rabbits; type: in vivo
Description: as §1, §2

[15] = test system: potassium channels of the membrane of neurons; experiment: ion currents through the somatic membrane of mollusc neurons: potassium channels; type: cell-based, mollusca
Description: The study of the effect produced by the preparation of the present invention on ion currents through the somatic membrane of neurons has shown that it selectively interacts with calcium and potassium channels of the membrane of neurons of mollusca, whereby the currents along these channels are suppressed.

[16] = test system: cardiac conductive system; type: in vivo, narcotized rats, cats, intact rabbits and dogs
Description: To investigate the character of the effect produced on the functions of the cardiac conductive system by the preparation according to the present invention, the ECG changes appearing in narcotized rats, cats, intact rabbits and dogs under the action of the preparation of this invention were studied. […] The effect of the preparation is retained for a long time.

[17] = long-time administration, histological analysis of inner organs; type: in vivo, laboratory animals (dogs, rabbits, rats); settings: 10 mg/kg
[18] = test system: cardiac arrhythmia induced by barium chloride; experiment: cardiac arrhythmia induced by barium chloride; type: in vivo, narcotized rats and intact rabbits; settings: 0.1 mg/kg, injected 10 minutes prior to barium
Description: The study of the antiarrhythmic activity of the preparation according to the present invention on a model of cardiac arrhythmia induced by barium chloride was carried out on 56 narcotized rats and 16 intact rabbits. The preparation of the present invention in the dose of 0.1 mg/kg injected 10 minutes prior to administration of barium prevented the development of arrhythmia in 86.6% of the animals.

[19] = 6-month histological toxicity, rabbits; type: in vivo; settings: intravenous, 0.1 and 0.5 mg/kg, 6 months

SMILES: CCN1CC2(OC(=O)c3ccccc3NC(C)=O)CCC(OC)C34C1C(CC23)C1(O)CC(OC)C2CC4C1(O)C2OC (stereo not shown) [lappaconitine hydrobromide]
- changes in general state of animals ([1]; 0.1-1 mg/kg intravenously, 1-5 mg/kg intraperitoneally, 5-20 mg/kg per os): no considerable changes in the general state of the animals are observed
- signs in mice and rats ([1]; higher doses, 5 minutes on average after administration): adynamia, delayed responses, weakening of the muscular tension, rarification and deepening of breathing, lowering of the body temperature
- additional signs ([1]; sublethal and lethal doses): hypersalivation, diarrhea, acute disturbances of breathing
- duration of effect relative to quinidine and novocainamide [2]: 10 times
- efficiency by form ([3]; course treatment): more efficient for course treatment in tabletted forms
- contraindications ([3]; human, in vivo): No contraindications
- side effects (hypotension, changed heart beat rate, pulse, breathing) ([3]; patients): not observed
- antiarrhythmic effect in patients ([3]; patients with stable form of ventricular and supraventricular extrasystole): pronounced antiarrhythmic effect
- side effects in some cases ([3]; per os, intramuscular or intravenous): weakness or giddeness
- time after which side effects pass ([3]; weakness or giddeness): 10 to 15 min
- antiinflammatory effect [4]: pronounced antiinflammatory effect
- content of sugar, protein and enzymes in blood [5]: does not result in substantial changes
- destructive changes of inner organs and tissues [6]: no destructive changes on the part of inner organs and tissues
- influence on arterial pressure and breathing [7]: did not exert any influence on the arterial pressure and breathing
- duration of effect [8]: more than 2 hours
- effect on arrhythmia induced by adrenalin [8]: cuts short the arrhythmia induced by adrenalin
- effect on arterial pressure and on adrenalin hypertension [8]: does not affect the level of arterial pressure or the height of elevation of arterial pressure (hypertension) caused by adrenalin
- time to maximum effect [8]: 5 to 10 min
- lethal dose [9]: 5 to 6 mg/kg
- allergenic effect [10]: no allergenic effect
- arterial pressure and amplitude of the heart beat ([11]; 0.25 and 0.5 mg/kg): not changed
- duration of antiarrhythmic effect ([11]; 0.25 and 0.5 mg/kg): 2 to 3 h
- arrest of arrhythmia caused by electrical irritation ([11]; 0.25 and 0.5 mg/kg intravenously, 7 dogs and 10 cats): fully stops the origination of arrhythmia
- onset of antiarrhythmic effect ([11]; after administration, 0.25 and 0.5 mg/kg): 3 to 7 min
- activity relative to quinidine and novocainamide (times superior) ([11]; dog, in vivo): 40 times
- animals with increased coronary blood flow ([12]; 0.5 mg/kg): 40%
- increase of coronary blood flow ([12]; 0.5 mg/kg, in 40% of the animals): 15-30%
- increase of volume rate of coronary blood flow ([12]; 1 mg/kg, during a long time): 30-80%
- effect on coronary blood flow ([12]; intravenous, 0.1 mg/kg): does not provide any effect
- anesthetic activity relative to tetracaine hydrochloride ([13]; 14 intact rabbits): matches tetracaine hydrochloride in its anesthetic activity
- depth of anesthesia relative to tetracaine hydrochloride ([13]; rabbit, in vivo): inferior to tetracaine hydrochloride
- duration of anesthetic effect relative to tetracaine hydrochloride ([13]; rabbit, in vivo): more than 6 times
- lethal dose [14]: 3 to 4 mg/kg
- effect on currents along potassium channels [15]: suppressed
- effect on ECG ([16]; 1-2 mg/kg): increase the ranges PQ, QRS, QT, insignificantly R-R; the ripple S is deepened, the amplitude of the ripple T is uniformly increased
- effect on myocardial conductivity and sinus node automatism ([16]; in vivo): lowers conductivity of the myocardium and, to a lesser extent, automatism of the sinus node
- sublethal and lethal doses ([16]; intravenous): 4 to 6 mg/kg
- effect on ECG ([16]; intravenous, 0.5 mg/kg): deceleration of the atrioventricular conductivity and a certain rarification of the rhythm
- effect on ECG ([16]; intravenous, 4-6 mg/kg): growing inhibition of conductivity along the cardiac conducting system
- effect on ECG ([16]; rats, intravenous, 0.05 to 0.25 mg/kg): does not cause in rats any substantial effect on the ECG
- structural changes in inner organs [17]: structural changes in the inner organs
- animals in which development of arrhythmia is prevented [18]: 86.6%
- destructive changes of inner organs and tissues [19]: no destructive changes on the part of inner organs and tissues
